# Data: patent US11129861B2, “Methods for treating inflammatory diseases” (OKCHUNDANG CO., LTD., priority 2017, dated 2021)
# Key:
# [1] = Body weight measurements, expectorant assay; format: in vivo, mice; settings: 250 mg/kg orally
# Method: One-hundred twenty one 6-week male SPF/VAF CrljOri: CD1[ICR] mice (OrientBio, Seungnam, Korea; body weight ranged in 29-32 g upon receipt) were prepared, and seven groups of 10 mice each were selected based on the body weights at 7 days after acclimatization based on the body weights (Average:34.75±1.32 g, ranged in 31.6-37.4 g), as follows. Animals husbandries were conducted as same as antitussive assay. All laboratory animals were treated according to the national regulations of the usage and welfare of laboratory animals, and approved by the Institutional Animal Care and Use Committee in Daegu Haany University (Gyeongsan, Gyeongbuk, Korea) [DHU2016-035, Apr. 22, 2016; ANNEX IV].
# AR, KOG and SKOG were orally administered as same as antitussive assay, once a day for 11 days before phenol red treatment. In addition, AM was also dissolved in distilled water as 25 mg/ml concentrations, and orally administered in a volume of 10 ml/kg (as equivalence to 250 mg/kg), once a day for 11 days before phenol red treatment. In intact vehicle control mice, distilled water 10 ml/kg was orally administered, instead of AR, KOG, SKOG or AM to provide same restrain stresses, in the present experiment.
# Changes of body weights and gains were measured as same methods described in Example 3.
# [2] = tested on: mice; assay: Expectorant assay: mucous secretions by phenol red (TLF OD, body surface redness); format: in vivo; settings: 250 mg/kg orally, 11 days
# Method: One-hundred twenty one 6-week male SPF/VAF CrljOri: […] Animals husbandries were conducted as same as antitussive assay. All laboratory animals were treated according to the national regulations of the usage and welfare of laboratory animals, and approved by the Institutional Animal Care and Use Committee in Daegu Haany University (Gyeongsan, Gyeongbuk, Korea) [[…] and SKOG were orally administered as same as antitussive assay, once a day for 11 days before phenol red treatment. In addition, AM was also dissolved in distilled water as 25 mg/ml concentrations, and orally administered in a volume of 10 ml/kg (as equivalence to 250 mg/kg), once a day for 11 days before phenol red treatment. In intact vehicle control mice, distilled water 10 ml/kg was orally administered, instead of AR, KOG, SKOG or AM to provide same restrain stresses, in the present experiment. Mucous secretions were measured by single intraperitoneal injection of 5% phenol red (Junsei Chemical Co. […] After ultrasonic for 15 min using ultrasonicator (Model 5210, Branson Ultrasonics, Danbury, Conn., USA), 1 ml NaHCO3 solution (5%, w/v) add to the normal saline, and optical density of these prepared trachea lavage fluid (TLF) were measured at 546 nm using a microplate reader (Model Sunrise, Tecan, Männedorf, Switzerland) as described previously with some modifications.
# [3] = tested on: mice; assay: Expectorant assay: secondary bronchus histopathology; format: in vivo; settings: 250 mg/kg orally, 11 days; compared with intact vehicle control
# Method: AR, KOG and SKOG were orally administered as same as antitussive assay, once a day for 11 days before phenol red treatment. In addition, AM was also dissolved in distilled water as 25 mg/ml concentrations, and orally administered in a volume of 10 ml/kg (as equivalence to 250 mg/kg), once a day for 11 days before phenol red treatment. In intact vehicle control mice, distilled water 10 ml/kg was orally administered, instead of AR, KOG, SKOG or AM to provide same restrain stresses, in the present experiment. Simultaneously, some parts of individual lung (left lateral lobes) were sampled at trachea excisions, and fixed in 10% NBF, and crossly trimmed. Then embedded in paraffin, sectioned (3˜4 μm) and stained with H&E for general histopathology or PAS (periodic acid schiff) for mucous producing cells, and after that the histopathological profiles of each sample were observed under light microscope. […] The histopathologist was blinds to group distribution when this analysis was made, and at least five repeated measurements in same histological specimens prepared were considered to calculate each mean histomorphometrical value, whenever possible, in this histopathological evaluation.
# [4] = Body weight measurements, anti-inflammatory assay; format: in vivo, mice; settings: 1 mg/kg orally
# Method: (§1) One-hundred thirty two 6-week male SPF/VAF CrljOri:CD1 [ICR] mice (OrientBio, Seungnam, Korea; body weight ranged in 29-32 g upon receipt) were prepared, and eight groups of 10 mice each were selected based on the body weights at 7 days after acclimatization based on the body weights (intact control: 33.88±1.11 g, ranged in 31.8˜35.4 g; Xylene treated mice: 33.85±1.32 g, ranged in 31.1-36.6 g), as follows. Animals husbandries were conducted as same as antitussive and expectorant assays. All laboratory animals were treated according to the national regulations of the usage and welfare of laboratory animals, and approved by the Institutional Animal Care and Use Committee in Daegu Haany University (Gyeongsan, Gyeongbuk, Korea) [DHU2016-036, Apr. 22, 2016; ANNEX V].
# AR, KOG and SKOG were orally administered as same as antitussive and expectorant assays, once a day for 11 days before xylene topical applications. In addition, DEXA-water soluble granules were dissolved indistilled water as 1.5 mg/ml concentrations (0.1 mg/ml based on DEXA itself), and also orally administered in a volume of 10 ml/kg (as equivalence to 1 mg/kg based on DEXA itself), once a day for 11 days before xylene topical applications. In intact vehicle and xylene control mice, distilled water 10 ml/kg was orally administered, instead of AR, KOG, SKOG or DEXA to provide same restrain stresses, in the present experiment.
# Changes of body weights and gains were measured as same methods described in Example 3 and 4.
# [5] = tested on: xylene topically applied mice; assay: Anti-inflammatory assay: xylene-induced ear inflammation, ear weight and gross signs; format: in vivo; settings: 1 mg/kg orally, 11 days; compared with xylene control mice
# Method: as §1
# AR, KOG and SKOG were orally administered as same as antitussive and expectorant assays, once a day for 11 days before xylene topical applications. […]
# Two hours after topical application of xylene, circular sections of induced ear were taken using a cork borer with a 7-mm diameter and weighed as absolute wet-weights, and then the relative weights (% of bodyweights) of the ears were calculated to reduce the differences from individual body weights, as follow Equation [2], in the current experiment. […]
# [6] = tested on: xylene topically applied mice; assay: Anti-inflammatory assay: ear histopathology; format: in vivo; settings: 1 mg/kg orally, 11 days; compared with xylene control mice
# Method: Acute inflammations were induced by single topical application of 0.03 ml of xylene (Duksan Pure Chemical Co. Ltd., Ansan, Korea) to the anterior surface of the right ear at 1 hour after last 11th test substance administration, as described previously with some modifications. Equal volume of saline was topically applied in intact vehicle mouse ears, instead of xylene, in our experiment.
# After ear weight measurement, individual ear samples were fixed in 10% NBF, and crossly trimmed. Then embedded in paraffin, sectioned (3˜4 μm) and stained with Hematoxylin and eosin (H&E) for general histopathology or toluidine blue for mast cells, and after that the histopathological profiles of each sample were observed under light microscope. To more detail changes, mean total, epidermis and dermis thicknesses of the ear anterior surface, numbers of infiltrated inflammatory cells and mast cells on the dermis of ear (cells/mm^2), collagen occupied region percentages on the dermis (%/mm2) were analyzed using a computer assisted image analysis program, according to previously established methods, respectively. The histopathologist was blinds to group distribution when this analysis was made, and at least five repeated measurements in same histological specimens prepared were considered to calculate each mean histomorphometrical value, whenever possible, in this histopathological evaluation.
# [7] = compared with intact vehicle control
# [8] = 11 days, xylene topically applied mice
smiles,measurement,setting,value
"Nc1c(Br)cc(Br)cc1CN[C@H]1CC[C@H](O)CC1 [AM, ambroxol]",Body weight gains (g) [B − A],"[1]; 11 days, expectorant assay",1.99 ± 0.73 g
same,Body weights (g) at test material administration First [A],"[1]; 11 days, expectorant assay",29.23 ± 1.16 g
same,Body weights (g) at test material administration Last [B],"[1]; 11 days, expectorant assay",31.22 ± 1.65 g
same,"body weight gains during 11 days, change",[1]; [7],6.42%
same,body redness (body surface gross findings),"[2]; 30 min after intraperitoneal injection of phenol red, vs intact control",dramatic increases of body redness
same,"TLF OD values, change",[2]; [7],33.95%
same,"Mean numbers of secondary bronchus epithelial PAS positive mucous producing cells, change",[3],231.58%
same,"Mean thicknesses of secondary bronchus mucosa, change",[3],41.69%
"C[C@@H]1C[C@H]2[C@@H]3CCC4=CC(=O)C=C[C@]4(C)[C@@]3(F)[C@@H](O)C[C@]2(C)[C@@]1(O)C(=O)CO [DEXA, dexamethasone]","body weight gains during 11 days, change","[4]; 11 days, compared with xylene control mice",−145.10%
same,Body weight gains (g) [B − A],[4]; [8],−0.92 ± 0.76^ab g
same,Body weights (g) at test material administration First [A],[4]; [8],28.72 ± 1.10 g
same,Body weights (g) at test material administration Last [B],[4]; [8],27.80 ± 1.66^ab g
same,body weights during administration period,"[4]; from 2 days after initial administration, compared with intact vehicle and xylene control mice",significant (p<0.01 or p<0.05) decreases of body weights
same,"absolute ear weights, change",[5],−48.52%
same,"relative ear weights, change",[5],−42.61%
same,"Mean ear dermis thicknesses, change",[6],−60.02%
same,"Mean ear epidermis thicknesses, change",[6],−6.35%
same,"Mean numbers of infiltrated inflammatory cells on the ear dermis, change",[6],−93.13%
same,"Mean numbers of infiltrated mast cells on the ear dermis, change",[6],647.56%
same,"Mean percentages of collagen occupied regions on the ear dermis, change",[6],189.63%
same,"Mean total ear thicknesses, change",[6],−62.39%
